Source: patent US11236354B2, “Glyphosate-n-acetyltransferase (GLYAT) sequences and methods of use” (PIONEER HI-BRED INTERNATIONAL, INC., priority 2013, dated 2022)
Values joined by “and” are separate entries in the source; they are usually repeats but may differ in a detail not shown here. Identical values can stand only once.

Tests used:
Assay in all cases: Substrate saturation kinetic analysis of purified GLYAT
[1] = target: GLYAT (glyphosate-N-acetyltransferase), parent, SEQ ID NO:2 (Bacillus licheniformis, UniProt Q65LG7, A28V/D131E/E119K/E63D/E65Q/E67Q/E68K/E83D/E96Q/G37R/I132T/I135V/I15L/I2L/K101R/K144R/K58Q/L105M/L97I/R18K/T89S/V114A/Y130F/Y45F); conditions: pH 7.0
Sequence of GLYAT (glyphosate-N-acetyltransferase), parent, SEQ ID NO:2 (Q65LG7 entry or part of it with the stated changes): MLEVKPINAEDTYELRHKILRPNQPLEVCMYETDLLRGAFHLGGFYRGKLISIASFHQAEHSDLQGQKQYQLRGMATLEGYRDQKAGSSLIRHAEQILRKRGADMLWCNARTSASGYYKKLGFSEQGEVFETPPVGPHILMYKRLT

[2] = target: GLYAT variant SEQ ID NO:3 (derived from SEQ ID NO:1 and 2) (Bacillus licheniformis, UniProt Q65LG7, A28V/D131E/E119K/E14D/E65Q/E67K/E68K/E83D/G37R/I132T/I135V/I15L/I19V/I2L/I53V/I91V/K101R/K144R/K58Q/L105M/L106I/L26I/L97I/M75V/R47G/R92K/T89S/V114A/Y130F/Y45F); conditions: pH 7.0
[3] = target: GLYAT variant SEQ ID NO:5 (derived from SEQ ID NO:1 and 2) (Bacillus licheniformis, UniProt Q65LG7, A28V/D131E/E14D/E65Q/E67K/E68K/G37R/I132T/I135A/I15L/I19V/I53V/I91V/K101R/K144R/K58Q/L105M/L106I/L26I/L97I/M75V/R47G/R92K/T89S/V114A/Y130F/Y45F); conditions: pH 7.0
[4] = target: GLYAT (glyphosate-N-acetyltransferase), parent of saturation mutagenesis (already fit protein), SEQ ID NO:26 (derived from SEQ ID NO:1 and 2) (Bacillus licheniformis, UniProt Q65LG7, A28V/C29I/D131E/E14D/E65Q/E67K/E68K/E83D/G37R/I132T/I135A/I15L/I19V/I53V/I91V/K101R/K144R/K58Q/L105M/L26I/L97I/M75V/R47G/R92K/T89S/V114A/Y130F/Y45F); format: biochemical
Sequence of GLYAT (glyphosate-N-acetyltransferase), parent of saturation mutagenesis (already fit protein), SEQ ID NO:26 (derived from SEQ ID NO:1 and 2) (Q65LG7 entry or part of it with the stated changes): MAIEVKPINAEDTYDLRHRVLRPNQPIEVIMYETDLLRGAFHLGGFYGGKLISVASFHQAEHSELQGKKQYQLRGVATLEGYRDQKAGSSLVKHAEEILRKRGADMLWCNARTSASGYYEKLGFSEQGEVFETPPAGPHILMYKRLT
Description: E. coli cultures in LB or 2×YT were grown overnight at 37° C. to saturation. The cells were used as a 2% inoculum into fresh media. When OD reached 0.6, IPTG was added to 0.2 mM and growth was continued for at least 6 hours. Cells were harvested by centrifugation and stored at −80° C. Cells were lysed with BPER (Pierce) containing 1 mM dithiothreitol, 0.2 mg/ml lysozyme, 2 mg/ml protease inhibitor cocktail (Sigma bacterial cell cocktail, P8465) and endonuclease. Lysate supernatants were passed through a column of NHS-activated Agarose (Thermo, #26197) derivatized with coenzyme A. Columns were washed with 25 mM Hepes, pH 7, containing progressively higher concentrations of KCl, then eluted with 25 mM Hepes, 100 mM KCl, 10% ethylene glycol and 1 mM acetyl CoA. Purity as evaluated by polyacrylamide gel electrophoresis was deemed consistently high enough to be assumed to be 100%. Protein concentration was determined with the Bradford assay using a large-scale lot of produced GLYAT protein as standard.
Kinetic parameters for various substrates were obtained using a range of seven substrate concentrations plus a blank containing none of the varied substrate. The non-varied substrate was present at a saturating concentration. Six-microliter aliquots of 50-fold concentrated stock solutions of the varied substrate were placed in a 96-well assay plate (Greiner BioOne UV-Star). Reactions were started with the addition of 294 ul of 25 mM Hepes, pH 7.0, 100 mM KCL, 10% ethylene glycol, the non-varied substrate and 10 to 200 nM enzyme. Absorbance was monitored for one minute with a Spectramax 384 Plus plate reader (Molecular Devices). If the amino acid present at position 30 (29 if alanine is absent at position 2) was cysteine, absorbance was monitored at 235 nm, which directly detects cleavage of the sulfoester bond of acetyl CoA. If the amino acid present at position 30 (29 if alanine is absent at position 2) was isoleucine, 0.5 mM 5,5′-dithiobis-(2-nitrobenzoic acid), which reacts with the coenzyme A thiol generated in the enzyme catalyzed reaction, was included in the reaction mix and absorbance was monitored at 412 nm. Initial rates were processed by the Softmax software to obtain kinetic parameters, using the double-reciprocal transformation.
The sequences with the new substitutions were derived through a combination of saturation mutagenesis of an already fit protein (SEQ ID NO:26) and an effective screening cascade as a means of identifying the improved genes (Examples 1-2). Regions in which novel changes are concentrated include helix H2a (positions 23 and 25-29) and the hairpin formed by strands B6 and B7 (positions 124-144). These two structures are components of the amino substrate binding site. Helix H3, the backbone to which the central beta sheet is anchored, is a region where 24% of the novel substitutions (17 out of 71) disclosed in Table 4 are concentrated into 11% of the positions (16 out of 146). None of those are near enough to the active site to influence substrate specificity directly. In three cases, multiple novel substitutions were discovered immediately or nearly adjacent to conserved amino acids shown previously to contribute to the catalytic mechanism (Siehl D L et. al., J Biol Chem, 282:11446, 2007). The catalytic amino acids for which this is the case are R21, R111, H138 and the nearby positions with multiple substitutions are 23, 112 and 137. The diverse amino acids at these positions may influence the orientation of the neighboring catalytic amino acids so as to selectively optimize catalysis with the preferred substrate, glyphosate.

[5] = target: GLYAT variant SEQ ID NO:8 (derived from SEQ ID NO:1 and 2) (Bacillus licheniformis, UniProt Q65LG7, A28V/D131E/E119K/E14D/E65Q/E67K/E68K/E83D/G37R/G38S/I132T/I135A/I15L/I53V/I91V/K101R/K144R/K58Q/L105M/L106I/L26I/L36T/L97I/M75V/N8S/R47G/R92K/T89S/V114A/Y130F/Y45F); conditions: pH 7.0
[6] = target: GLYAT (glyphosate-N-acetyltransferase), parent, SEQ ID NO:1 (Bacillus licheniformis, UniProt Q65LG7, E119R/E14D/E65Q/E67K/E68K/G37R/G38S/I132T/I135V/I15L/I19V/I53V/I91V/K101R/K144R/K58Q/L105M/L106I/L145I/L26I/L36T/L97I/M75V/R47G/R92K/T33S/T89S/V114A/Y130F/Y31F/Y45F)
Sequence of GLYAT (glyphosate-N-acetyltransferase), parent, SEQ ID NO:1 (Q65LG7 entry or part of it with the stated changes): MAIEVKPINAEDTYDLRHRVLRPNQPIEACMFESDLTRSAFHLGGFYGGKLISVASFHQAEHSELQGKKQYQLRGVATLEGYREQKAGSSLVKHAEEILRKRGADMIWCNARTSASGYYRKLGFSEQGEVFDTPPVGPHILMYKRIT

[7] = pH 7.0, non-varied substrate saturating

Q: Which “Asp as % of glyph (kcat/KM asp / kcat/KM glyph)” value [1] does the source give for `N[C@@H](CC(=O)O)C(=O)O` [aspartate] here?
A: 0.574%

Q: What about the “Asp as % of glyph (kcat/KM asp / kcat/KM glyph)” value [2] of the same molecule?
A: 0.403%

Q: And the “Asp as % of glyph (kcat/KM asp / kcat/KM glyph)” value [3]?
A: 0.059%

Q: What about the “Asp as % of glyph (kcat/KM asp / kcat/KM glyph)” value ([4]; pH 7.0) of the same molecule?
A: 0.038%

Q: What about the “kcat (aspartate)” value [4, 7] of the same molecule?
A: 1.5 s⁻¹

Q: What about the “kcat/KM (aspartate)” value [4, 7] of the same molecule?
A: 16 M⁻¹ s⁻¹

Q: What about the “Asp as % of glyph (kcat/KM asp / kcat/KM glyph)” value [5] of the same molecule?
A: 0.079%

Q: What about the kcat/KM with aspartate ([6]; 25 mM Hepes, pH 7.0) of the same molecule?
A: 228 M⁻¹ s⁻¹

Q: And the “kcat/Km asp, % glyph” value ([6]; Table 5 and text, specificity (kcat/KM asp/kcat/KM glyph), listed as asp)?
A: 1.3% and 1.27%

Q: And the “Asp as % of glyph (kcat/KM asp / kcat/KM glyph)” value ([6]; pH 7.0)?
A: 1.273%
